Measurements reported in patent US20230405118A1, “STAT-ACTIVATED MACROPHAGES, COMPOSITIONS, AND USES THEREOF” (THE GEORGE WASHINGTON UNIVERSITY, A CONGRESSIONALLY …, priority 2020, published 2023).

Key:
Type in all cases: cell-based, mouse
TGFβ = TGFβ gene expression by quantitative real-time PCR in pre-treated macrophages; settings: FIG. 3
Experimental: (§1) Bone marrow derived macrophages (BMDMs): For macrophage isolation, bone marrow from 6-12 weeks old C57BL/6 mouse was used following an IACUC approved protocol. Briefly, femurs and tibia bones were isolated after removing the skeletal muscles. The bone marrow was flushed with RPMI complete medium supplemented with non-essential amino acids. A single-cell suspension of bone marrow was prepared with repeated pipetting and incubated with 20 ng/mL of mouse recombinant M-CSF (Biolegend) at 37° C. for 4 days to differentiate into macrophages.
(§2) Bone marrow derived macrophages (BMDMs) were differentiated into macrophages with M-CSF. These naïve macrophages were pre-treated with Nexturastat A (NextA) or 6-nitrobenzo[b]thiophene-1,1-dioxide (Stattic) and polarized to M2 macrophages with IL4/IL13. Pre-treatment with NextA and Stattic decreased polarization of M2 macrophages as indicated by flow cytometry.
(§3) Further validation of M2 polarization markers at gene expression levels by quantitative real-time PCR indicate that Arginase I, TGFβ, and FIZZ1, which are tumor-promoting factors, were decreased. FIG. 2, FIG. 3, and FIG. 4.

Arginase I = Arginase I gene expression by quantitative real-time PCR in pre-treated macrophages; settings: FIG. 2
Experimental: as §1, §2, §3

[1] = tested on: M2 macrophages (bone marrow derived macrophages polarized with IL4/IL13); assay: M2 polarization of pre-treated BMDMs, CD206 marker by flow cytometry; settings: naïve BMDMs pre-treated with compound, then polarized to M2 with IL4/IL13; FIG. 1
Experimental: as §1
Flow cytometry: Flow cytometry was performed following the protocol described previously. Knox et al., Sci Rep. 2019 Oct. 10; 9(1):14824. doi: 10.1038/s41598-019-51403-6. Briefly, mice were euthanized following the IACUC protocol, and tumor cells were processed into a single cell suspension for analysis by flow cytometry with tumor digestion buffer. The following antibodies were used to stain cell surface markers expressed by different immune cells. All the antibodies were purchased from Biolegend (San Diego, CA) unless otherwise specified. Myeloid cell surface markers are as follows: APC anti-mouse CD80 (clone 16-10A1), PE/Cy7 anti-mouse CD206 (MMR) (clone C068C2), APC/Fire™ 750 anti-mouse CD45.2 (clone 104), FITC anti-mouse H-2 (clone M1/42), Brilliant Violet 785TM anti-mouse F4/80 (clone BM8), and Alexa Fluor® 700 anti-mouse CD3 (clone 17A2). […]

FIZZ1 = FIZZ1 gene expression by quantitative real-time PCR in pre-treated macrophages; settings: FIG. 4
Experimental: as §1, §2, §3

CCCCN(Cc1ccc(C(=O)NO)cc1)C(=O)Nc1ccccc1 [NextA, Nexturastat A]
decreased: TGFβ expression level (M2 polarization marker) (TGFβ) | Arginase I expression level (M2 polarization marker) (Arginase I) | polarization of M2 macrophages (CD206 as marker, flow cytometry) [1] | FIZZ1 expression level (M2 polarization marker) (FIZZ1)

O=[N+]([O-])c1ccc2c(c1)S(=O)(=O)C=C2 [Stattic, 6-nitrobenzo[b]thiophene-1,1-dioxide]
decreased: TGFβ expression level (M2 polarization marker) (TGFβ) | Arginase I expression level (M2 polarization marker) (Arginase I) | polarization of M2 macrophages (CD206 as marker, flow cytometry) [1] | FIZZ1 expression level (M2 polarization marker) (FIZZ1)
